Series [1] has as its system ovariectomized female Crl:CD rats. Put plainly: Transdermal progesterone opposing estradiol effects on uterus and vagina in ovariectomized rats. Format: in vivo, rat. Particulars: for Endometrial Gland Density, LSMean / Endometrial Gland Size, LSMean / Endometrial Height, LSMean / Luminal Epithelial Cell Height, LSMean / Number of Mitotic Figures, LSMean: Day 8, EST 3 μg/kg SC alone, or with 10 mg/kg SC Prog, or with 3.125 mg/kg Dermal Prog. Here is the method:
Transdermally delivered progesterone blocked growth-related estrogenic effects on the endometrium and vagina in ovariectomized rats.
Thirty-two 8-week-old female Crl:CD® rats underwent ovariectomy 2 weeks prior to the start of the study. Rats were then randomly assigned to 4 groups of 8 rats each and dosed according to the schedule in Table 4. Control animals were dosed with saline or vehicle as noted. Two hours after the final dose on Day 8, the rats were humanely euthanized and the rats' vaginas and the distal portions of the rats' uterine horns were fixed and processed for histology and computer-aided morphometry.

Series [2] in a line: Solubility of progesterone in solvent (concentration for clear solution). The series is classed as physicochemical. The source says:
Without wishing to be bound by any particular theory, it is believed that the compositions and methods described herein address the problems associated with known steroid hormone formulations such as poor solubility, poor bioavailability, and poor stability. More specifically, it has now been discovered that terpenes are unexpectedly effective in enhancing the solubility of insoluble steroid hormones such as progesterone and likewise act as excellent penetration enhancers for these same compounds. […] The compositions can also have any combination of enhanced dissolution rates, penetration capabilities, absorption, and bioavailability.

[3] abbreviates: estradiol-treated ovariectomized rats, progesterone SC or transdermally.

Marks after values point to notes of the source that are not given here.

For `C[C@]12CC[C@@H]3c4ccc(O)cc4CC[C@H]3[C@@H]1CC[C@@H]2O` [EST, (17β)-estra-1,3,5(10)-triene-3,17-diol], in series [1] (ovariectomized rats), the “Endometrial Gland Density, LSMean” value is given as 7.09^b cells/mm^2; the “Endometrial Gland Size, LSMean” value is 4540^b μm^2; the “Endometrial Height, LSMean” value was 418^b μm; the “Luminal Epithelial Cell Height, LSMean” value was 47.8^b μm. For the same molecule, the “Number of Mitotic Figures, LSMean” value in series [1] (ovariectomized rats) is reported as 921^b. In addition, in series [1] (unopposed estradiol treatment, ovariectomized rats), the “effect on the uterus (organ weight measurements and histology)” value is listed as “hypertrophy”.
On to `CC(=O)[C@H]1CC[C@H]2[C@@H]3CCC4=CC(=O)CC[C@]4(C)[C@H]3CC[C@]12C` [Progesterone, pregn-4-ene-3,20-dione], for which the uterine weight result in series [1] (estradiol-treated ovariectomized rats receiving progesterone SC or transdermally, FIGS. 5 and 6) was “Significantly reduced”. Further, in series [1] (setting [3]), the “endometrial gland density compared to unopposed estradiol” value is listed as “significant increase” and the “luminal epithelial cell height compared to unopposed estradiol” value was “significant reduction”. Also, the “estrogen-specific cellular aspects in the uterus and vagina” value in series [1] (histology, estradiol-treated ovariectomized rats receiving progesterone SC or transdermally) was “not detected”. In series [1] (ovariectomized rats), the “Endometrial Gland Density, LSMean” value is 10.3^b,d cells/mm^2; the “Endometrial Gland Size, LSMean” value is reported as 4390^b μm^2; the “Endometrial Height, LSMean” value was 436^b μm; the “Luminal Epithelial Cell Height, LSMean” value is listed as 31.91^b,d μm. In series [1] (ovariectomized rats), the “Number of Mitotic Figures, LSMean” value is 595^b,d. Also, the “Concentration of Progesterone (mg/g) for clear solution” value in series [2] (solvent Absolute Ethanol) turned out to be 57 mg/g. Besides, the “Concentration of Progesterone (mg/g) for clear solution” value in series [2] (solvent d-Limonene) is on record as 204.0 mg/g.

Values taken from patent publication US10328087B2, “Formulations for solubilizing hormones” (TherapeuticsMD, Inc., priority 2015, dated 2019).
